According to US7585938B2, “Gamma-secretase inhibitors” (priority 2002, dated 2009):
≈ marks a conversion by molar mass, not a printed value. Blank lines part the entries; values can stand above or below the compound they belong to.

Tests used:
γ-secretase [1] = target: T1, γ-secretase (Homo sapiens, UniProt P49768); test: Amyloid protein determination by ELISA in IMR32 cells with introduced human APP695 gene carrying the Sweden mutation; format: cell-based
T1 construct: endogenous in cells; host or cells: IMR32 cells (transfected only with the substrate APP gene)
Method: APP gene was efficiently introduced from outside into COS cells, which is a cultured cell line of simian kidney's origin, using Lipofectamine Plus reagent (Invitrogen K.K.) according to its protocol. Briefly, 1 μg of APP gene was dissolved in 100 μl of OPTI-MEM, mixed with 6 μl of Plus reagent and left to stand for 15 minutes at room temperature. In parallel, 4 μl of Lipofectamine dissolved in 100 μl of OPTI-MEM medium was prepared. This was then mixed with the APP gene solution, and left to stand for further 15 minutes. Six-well culture plates were provided in advance in each well of which was placed 800 μl of culture that had been prepared by culturing COS cells at 75% to 80% cell density in a DMEM medium supplemented with 10% fetal bovine serum, and then replacing the medium with OPTI-MEM medium. Two hundred pI of the reaction mixture containing the gene were added to each culture well. Twelve hours after introduction of the gene, the medium was changed from the OPTI-MEM medium containing the introduced gene to a 10% fetal bovine serum-supplemented DMEM medium free of the introduced gene. To this culture, the compound obtained in Example 1 was added. After 36 to 48 hours, culture supernatant was collected, transferred to centrifuging tubes, and centrifuged at 10,000 r.p.m. at room temperature for 5 minutes. The supernatant was used as a sample containing amyloid protein. The shorter and the longer amyloid protein components contained in each sample can be separately determined using a commercially available ELISA kit for amyloid protein determination (KHB3441: Signal Select™ Human ⊖ Amyloid1-42 ELISA Kit, or KHB3481: Signal Select™ Human β Amyloid1-40 ELISA Kit, BioSource International, Inc. CA, USA). Those ELISA kits for amyloid determination included 96-well ELISA plates coated with a primary antibody to these two types of amyloid proteins. Following eliminating non-specific antigen-antibody reactions by allowing a usual non-specific blocking reaction, a sample medium containing the amyloid protein to be measured was reacted. Then, after usual washing, one of secondary antibodies was added. The secondary antibodies consisted of two deferent antibodies that can distinguish between the two types of amyloid proteins, the one is the shorter amyloid protein and the other is the longer amyloid antibody, without no cross reactivity. The difference between the two amyloid proteins is the absence or presence of the two amino acid residues (isoleucine and alanine) at their carboxyl terminus. The antibody that detects the former is considered to recognize valine at the carboxyl terminus and the antibody that detects the latter is thought to recognize the alanine.
The compounds (1′a) and (1′b) obtained above were measured for inhibitory activity by the same method as in Example 3. As the system for evaluation, however, IMR32, a neural system cell line of human origin, was used after introducing to it a human APP695 gene into which the Sweden mutation had been incorporated.

γ-secretase [2] = test: Amyloid protein determination by ELISA in culture supernatant of COS cells with introduced Sweden-type APP695 gene; format: cell-based, simian; conditions: for Inhibition rate (%) Aβ42(43) / Inhibition rate (%) Total Aβ: 100 µM
Text: (§1) The human APP695 gene used in this example (whose nucleotide sequence in its coding region is shown as SEQ ID NO:6) was what had been screened from a cDNA library prepared from the dead brain of a normal human by a conventional method, and its entire nucleotide sequence was confirmed by a conventional method. Briefly, about 1 g of frozen cerebral tissue was phenol-treated and the supernatant aqueous solution was collected. After repeating this process, mRNA was precipitated by addition of ethanol. After dissolving in 20 mM tris-HCl, pH 8., 0.1 mM EDTA, cDNA was synthesized with reverse transcriptase using oligo-dT primers and the mRNA as a template. After remaining RNA was digested with RNase, using thus obtained single-stranded cDNA as a template, double-stranded cDNA was synthesized with DNA polymerase. The double-stranded cDNA was then blunt-ended with T4 DNA polymerase. Following introduction of methylation into a EcoR1 restriction site using EcoR1 methylase, an EcoR1 linker adapter was ligated using ligase. After removal of unreacted free adapter by gel filtration, ligation to λgt11 vector was effected using DNA ligase, and thus ligated product was incorporated into λ-phage using a packaging kit. E. coli cells in agar plates were infected with the λ-phage thus obtained, and the solution containing thus proliferated phage was used as cDNA library. For APP cDNA cloning, oligonucleotides that were anticipated based on the amyloid protein were radio-labeled using γ^32P-ATP and DNA kinase to provide the labeled nucleotides as probes. 10^6 pfu (plaque forming units) of phage were allowed to form plaques on agar plates, and brought into contact with a nylon membrane. The phage DNAs that stuck to the membrane were denaturated to single-stranded DNAs by alkali treatment of the nylon membrane, and the membrane then was neutralized, to which, after incubation in a solution containing salmon sperm DNAs, the ^32P radio-labeled nucleotide probes were added and allowed to hybridize for 12 hours. At this stage, where aimed APP gene incorporated to the phage and one of the oligonucleotides were mutually complementary in their sequences, they would form a double-stranded DNA. The nylon membrane was then exposed to X-ray film, and plaques on the agar plates corresponding to spots of exposure were identified with phages carrying APP gene (fragment). By repeating this process, a single phage was finally obtained. The nucleotide sequence of the APP gene incorporated into the phage was determined by publicly known Sanger method.
(§2) APP gene was efficiently introduced from outside into COS cells, which is a cultured cell line of simian kidney's origin, using Lipofectamine Plus reagent (Invitrogen K.K.) according to its protocol. Briefly, 1 μg of APP gene was dissolved in 100 μl of OPTI-MEM, mixed with 6 μl of Plus reagent and left to stand for 15 minutes at room temperature. In parallel, 4 μl of Lipofectamine dissolved in 100 μl of OPTI-MEM medium was prepared. This was then mixed with the APP gene solution, and left to stand for further 15 minutes. Six-well culture plates were provided in advance in each well of which was placed 800 μl of culture that had been prepared by culturing COS cells at 75% to 80% cell density in a DMEM medium supplemented with 10% fetal bovine serum, and then replacing the medium with OPTI-MEM medium. Two hundred pI of the reaction mixture containing the gene were added to each culture well. Twelve hours after introduction of the gene, the medium was changed from the OPTI-MEM medium containing the introduced gene to a 10% fetal bovine serum-supplemented DMEM medium free of the introduced gene. To this culture, the compound obtained in Example 1 was added. After 36 to 48 hours, culture supernatant was collected, transferred to centrifuging tubes, and centrifuged at 10,000 r.p.m. at room temperature for 5 minutes. The supernatant was used as a sample containing amyloid protein. […]

[3] = Examination of solubility, visually and by microscopy; format: physicochemical
Text: The compound synthesized in Example 1 was examined for its solubility, visually as well as by microscopy.

γ-secretase [4] = test: Amyloid protein determination by ELISA in culture supernatant of COS cells with introduced wild-type human APP695 gene; format: cell-based, simian; conditions: for Inhibition rate (%) Aβ42(43) / Inhibition rate (%) Total Aβ: 100 µM
Text: as §1, §2

γ-secretase [5] = test: Amyloid protein determination by ELISA in culture supernatant of COS cells with introduced London-type (Val717Ile) APP695 gene; format: cell-based, simian; conditions: for Inhibition rate (%) Total Aβ: 100 µM
Text: as §1, §2

γ-secretase [6] = test: Amyloid protein determination by ELISA in cells with introduced APP artificial fragment C100 instead of APP695; format: cell-based, simian; conditions: Inhibitor 100 μM; for Inhibition rate (%) Aβ40 / Inhibition rate (%) Aβ42(43): 100 µM
[7] = Inhibitor 100 μM, Sweden-type APP695, COS cells
[8] = Sweden-type APP695, inhibitor 100 μM (Table 2), listed as Compound
[9] = Sweden-type APP695, inhibitor 100 μM (Table 2), listed as inhibitor
[10] = inhibitor 100 μM (Table 2), listed as Compound
[11] = inhibitor 100 μM (Table 2), listed as inhibitor
[12] = Inhibitor 100 μM, London-type APP695, COS cells
[13] = London-type APP695, inhibitor 100 μM (Table 2)

Aβ40 (γ-secretase [1]; 10 μM): 72 pg/mL | Inhibition rate (%) (γ-secretase [1]; 10 μM): 38% | Aβ40 (γ-secretase [1]; 100 μM): 26 pg/mL | Inhibition rate (%) (γ-secretase [1]; 100 μM): 78%
Compound: t-But-OCO-Thr*-Leu-Val-Met-NH-Bzl [Compound 1′b]

solubility ([3]; DMEM medium containing 10% fetal bovine serum, plasma or biological fluid, concentration 10 ng/ml): > 0.01 µg/mL | solubility ([3]; DMEM medium containing 10% fetal bovine serum, plasma or biological fluid, concentration 1 μg/ml): 0.01 to 1 µg/mL (≈ 0.017 to 1.7 µM) | solubility ([3]; DMEM medium containing 10% fetal bovine serum, plasma or biological fluid, concentration 100 μg/ml): < 100 µg/mL | solubility ([3]; DMSO, organic solvent or mixture, concentration 10 ng/ml): > 0.01 µg/mL | solubility ([3]; DMSO, organic solvent or mixture, concentration 1 μg/ml): > 1 µg/mL | solubility ([3]; DMSO, organic solvent or mixture, concentration 100 μg/ml): > 100 µg/mL | solubility ([3]; phosphate buffer, pH 7, aqueous buffer, Phosphate buffer (pH 7.0), concentration 10 ng/ml): > 0.01 µg/mL | solubility ([3]; phosphate buffer, pH 7, aqueous buffer, Phosphate buffer (pH 7.0), concentration 1 μg/ml): 0.01 to 1 µg/mL (≈ 0.017 to 1.7 µM) | solubility ([3]; phosphate buffer, pH 7, aqueous buffer, Phosphate buffer (pH 7.0), concentration 100 μg/ml): < 100 µg/mL | solubility ([3]; physiological saline, saline or isotonic, concentration 10 ng/ml): > 0.01 µg/mL | solubility ([3]; physiological saline, saline or isotonic, concentration 1 μg/ml): 0.01 to 1 µg/mL (≈ 0.017 to 1.7 µM) | solubility ([3]; physiological saline, saline or isotonic, concentration 100 μg/ml): < 100 µg/mL
Compound: COC(=O)[C@H](CC(C)C)NC(=O)[C@H](CCSC)NC(=O)[C@@H](C[C@@H](O)[C@H](CC(C)C)NC(=O)OC(C)(C)C)C(C)C [Compound 1, Boc-Leu*-Val-Met-Leu-OMe]
Aβ40 (γ-secretase [2]; [7]): 1726 pg/mL | Aβ42(43) (γ-secretase [2]; [7]): 1311 pg/mL | Ratio of Aβ42(43)/Aβ40 (γ-secretase [2]; [7]): 0.76 | inhibitory activity for Aβ40 (γ-secretase [2]; Sweden double mutation): about 90% | Inhibition rate (%) Aβ40 (γ-secretase [2]; Sweden-type APP695, inhibitor 100 μM (Table 2)): 90% | Inhibition rate (%) Aβ42(43) (γ-secretase [2]; [8]): 48% | Inhibition rate (%) Total Aβ (γ-secretase [2]; [8]): 84% | Inhibition rate (%) Aβ42(43) (γ-secretase [2]; [9]): about 48% | Inhibition rate (%) Total Aβ (γ-secretase [2]; [9]): more than 80% | inhibitory activity for Aβ40 production (γ-secretase [4]): about 98% | Aβ40 (γ-secretase [4]; Inhibitor 100 μM, COS cells): 218 pg/mL | Aβ42(43) (γ-secretase [4]; Inhibitor 100 μM, COS cells): 415 pg/mL | Ratio of Aβ42(43)/Aβ40 (γ-secretase [4]; Inhibitor 100 μM, COS cells): 1.90 | Inhibition rate (%) Aβ42 (γ-secretase [4]; inhibitor 100 μM (Table 2)): 98% | Inhibition rate (%) Aβ42(43) (γ-secretase [4]; [10]): 71% | Inhibition rate (%) Total Aβ (γ-secretase [4]; [10]): 98% | Inhibition rate (%) Aβ42(43) (γ-secretase [4]; [11]): about 71% | Inhibition rate (%) Total Aβ (γ-secretase [4]; [11]): about 98% | Aβ40 (γ-secretase [5]; [12]): 151 pg/mL | Aβ42(43) (γ-secretase [5]; [12]): 855 pg/mL | Ratio of Aβ42(43)/Aβ40 (γ-secretase [5]; [12]): 5.66 | inhibitory activity on amyloid protein production (γ-secretase [5]; London mutation (Val717Ile), compared with wild-type sequence): nearly the same level of inhibitory activity as that noted on the wild-type sequence | Inhibition rate (%) Aβ42 (γ-secretase [5]; [13]): 98% | Inhibition rate (%) Aβ42(43) (γ-secretase [5]; [13]): 70% | Inhibition rate (%) Total Aβ (γ-secretase [5]; London-type APP695, inhibitor 100 μM (Table 2), listed as Compound): 89% | Inhibition rate (%) Total Aβ (γ-secretase [5]; London-type APP695, inhibitor 100 μM (Table 2), listed as inhibitor): more than 80% | Aβ40 (γ-secretase [6]): 100 pg/mL | Aβ42(43) (γ-secretase [6]): 62 pg/mL | Inhibition rate (%) Total Aβ (γ-secretase [6]): 85% | Total Aβ (γ-secretase [6]): 162 pg/mL | Inhibition rate (%) Aβ40 (γ-secretase [6]; listed as Inhibitor): 89% | Inhibition rate (%) Aβ42(43) (γ-secretase [6]; listed as Inhibitor): 51% | Inhibition rate (%) Aβ40 (γ-secretase [6]; listed as inhibitor): about 90% | Inhibition rate (%) Aβ42(43) (γ-secretase [6]; listed as inhibitor): about 50%

Aβ40 (γ-secretase [1]; 10 μM): 31 pg/mL | Aβ40 (γ-secretase [1]; 100 μM): 0 pg/mL | inhibition at 10 µM (γ-secretase [1]; IMR-32, Aβ40, 10 μM, read-out: Inhibition rate (%)): 73% | inhibition at 100 µM (γ-secretase [1]; IMR-32, Aβ40, 100 μM, read-out: Inhibition rate (%)): 100%
Compound: CSCC[C@H](NC(=O)[C@@H](NC(=O)[C@H](CC(C)C)C[C@@H](O)[C@@H](NC(=O)OC(C)(C)C)[C@@H](C)OC(C)(C)C)C(C)C)C(=O)NCc1ccccc1 [Compound 1′a, t-But-OCO-Thr*-Leu-Val-Met-NH-Bzl]
